Assay results as given in patent US9249159B2, “Composition for treating hepatitis C virus, regulating phosphorylation of replicase” (Industry-Academic Cooperation Foundation, Yonsei University, priority 2011, dated 2016).

Columns and labels:
HCV NS5B = assay: NS5B phosphorylation in Huh7TR-NS cell (anti-p-Ser immunoprecipitation, anti-NS5B immunoblot); assay type: cell-based, hepatitis C virus; settings: 17-DMAG 50 nM or HA1077 20 μM, 48 hours
Description: The human hepatoma stable cell lines Huh7TR-4 and Huh7TR-NS [17], which express the tetracycline repressor and the HCV NS proteins (NS3-NS5) in a tetracycline-inducible manner, respectively, were maintained in the presence of blasticidin S (10 μg/mlL and Zeocine (100 μg/mL). NS protein expression in Huh7TR-NS was induced by addition of 1 μg/mL tetracycline for 24 h. The Huh7 cell-derived cell line R-1, supporting stable, autonomous replication of genotype 1b HCV subgenomic replicon RNA, was described previously. 17-DMAG, the PRK2 inhibitor, HA1077, and the inhibitor of phosphatidylinositol 3-kinase (PI3K), LY294002, were obtained from Sigma-Aldrich (St. Louis, Mo., USA) and Calbiochem Inc. (La Jolla, Calif., USA), and Biomol (Plymouth Meeting, Pa., USA), respectively. IFN-α was purchased from Sigma-Aldrich (1-4276).
For co-immunoprecipitation experiment, the cells were resuspended in lysis buffer A (100 mM Tris-HCl, pH 8.0, 150 mM NaCl, 1% Triton X-100, 10 mM NaF, 1 mM Na3VO4, 17.5 mM β-glycerophosphate) supplemented with an EDTA-free protease inhibitor cocktail (Roche Applied Science, Indianapolis, Ind., USA) and incubated on ice for 30 min. […]
Then, treatment with 17-DMAG (50 nM) or HA1077 (20 μM), a PRK2 inhibitor, was carried out for 48 hours. […] A case without treatment with an inhibitor was expressed as (−).

[1] = system: genotype 1b HCV subgenomic replicon (R-1 cell line); assay: HCV replication (HCV RNA by real-time RT-PCR, NS5B protein by Western blot) in R-1 subgenomic replicon cells; assay type: cell-based, hepatitis C virus genotype 1b; settings: R-1 cell
Excerpt: In order to check a PRK2 phosphorylation inhibition effect of the novel inhibitors obtained in Example 1, R-1 cell line harboring HCV subgenomic replicons was used.
The R-1 cell line was comprised of cis-acting RNA elements of 5′ and 3′-end untranslated regions (UTR) essential for replication of HCV RNA, a selection marker inserted to select a replicated RNA into a portion from which a structural protein coding site was removed, and a non-structural protein (NS3-NS5B)-coding gene required for replication. In the replicon, the selection marker was expressed by the HCV 5′-UTR and internal ribosome entry site (IRES) as a part of a coding gene of a core protein as a structural protein and capsid protein, and HCV non-structural proteins were expressed by IRES of EMCV. In order to obtain replicon cells, a HCV subgenomic replicon RNA was obtained by means of in vitro transcription by using a T7 RNA polymerase, free ribonucleotide was removed by using a spin column, and introduced into a hepatocellular carcinoma cell line by electroporation. In the presence of G418, a stable cell line, i.e. a cell line showing a resistance to G418 through replication of HCV subgenome, was obtained. Expression of the HCV non-structural proteins in this cell line was analyzed by Western blot to confirm that replication was being carried out, and the R-1 cell line was constructed. It was observed that an HCV RNA copy number was about 10^7 copies/mL by a quantitative real-time PCR analysis using a TaqMan probe. The R-1 cell line was a cell line in which HCV RNA replication was being carried out, and thus it could be used to evaluate an HCV replication inhibition effect of a PRK2 activity inhibitor.
Then, after the R-1 cell line was treated with each of 5 screened PRK2 inhibitors, HA1077 currently and clinically used as a PRK2 activity inhibitor, and Y27632 having a PRK2 activity inhibition effect at a final concentration of 20 μM for 48 hours, levels of HCV NS5B protein and HCV RNA in cell lysates (50 μg) were analyzed by Western blot and real-time RT-PCR.
To do so, after the two cell lines were treated with the compound #17 at higher concentrations (60 and 100 μM) than 20 μM for 48 hours, an HCV RNA genome level was checked by a real-time RT-PCR analysis. A value was a mean±standard deviation (SD) of three independent measurements. HCV RNA titer was quantified by real-time PCR analysis. Three independent experiments were performed in triplicate.
5 derivatives (#18 to #22: refer to FIG. 2) were produced based on the inhibitor #17 showing the best effect. After the R-1 cell line was treated with each of these inhibitors or HA1077 and Y27632 at a final concentration of 20 μM for 48 hours, an HCV RNA genome level was checked by a real-time RT-PCR analysis and expressed in % with respect to a control treated with DSMO. Three independent experiments were conducted repeatedly three times. Data were expressed by mean±SD of the three experiments.
Total RNA was extracted from R-1 or HCV (JFH1)-infected cells using TRIzol LS reagent (Invitrogen, Carlsbad, Calif., USA) and purified according to the manufacturer's instructions. HCV RNA levels were quantified by RT-PCR using a primer pair and TaqMan probe targeting a region within the HCV 5′-UTR as described previously. Cellular glyceraldehyde-3-phosphate dehydrogenase was used as an internal control. Assays were performed using the DyNAmo Probe 2-step qRT-PCR Kit (Finnzymes, Espoo, Finland) and a CHROMO4 continuous fluorescence detector (Bio-Rad, Hercules, Calif., USA), according to the manufacturer's instructions.
Therefore, anti-HCV activity of 17-DMAG in the R-1 cell was tested at a level lower than 50 nM. To do so, the R-1 cell was treated with a vehicle (0.25% DMSO) or 17-DMAG for 72 hours and the cell lysates (50 μg) and antibodies specific to the proteins were immunoblotted to measure levels of the proteins. An anti-α-tubulin antibody (lower end panel) was used as an internal loading control. […]

Question: How did the NS5B phosphorylation (HCV NS5B) turn out when `CO[C@H]1/C=C\C=C(/C)C(=O)NC2=CC(=O)C(NCCN(C)C)=C(C[C@@H](C)C[C@H](OC)[C@H](O)[C@@H](C)/C=C(\C)[C@@H]1OC(N)=O)C2=O` [17-DMAG, 17-(dimethylaminoethylamino)-17-demethoxygeldanamycin] was run?
Answer: inhibited NS5B phosphorylation

Question: What about the “decrease in viral RNA” value ([1]; 50 nM 17-DMAG combined with 100 IU/mL IFN-α, 72 hours) of the same molecule?
Answer: hundredfold

Question: What about the “inhibition of HCV RNA replication” value ([1]; 50 nM, 72 hours) of the same molecule?
Answer: about 50%

Question: And the “inhibition of virus replication” value ([1]; 17-DMAG 50 nM combined with HA1077 20 μM)?
Answer: approximately 80%
